In article PMC8958510 (Journal of Medicinal Chemistry, 2022):
In brackets after ≈: the same amount, converted by molar mass. Like-named read-outs stand apart in the source and are kept apart here.

Experiments:
[1] = PAMPA-BBB assay for brain permeability; settings: for Papp: pig, PAMPA; for BBB permeation class: PAMPA-BBB prediction
Procedure: PAMPA-BBB assay for brain permeability. The brain permeability (Pe) of the target
compounds was assessed by an in vitro parallel artificial membrane permeability assay for
blood‒brain barrier penetration (PAMPA-BBB assay),12 which uses a lipid extract of porcine
brain membrane as a BBB model. The assay was validated by comparing experimental and
reported Pe values of a set of fourteen commercial drugs (Table S2 of the Supporting
On the basis of this equation and the limits established by Di et al. for BBB
independent experiments, each performed in triplicate, were carried out for each compound.

recombinant mouse sEH = molecular target: T1, recombinant mouse sEH (Mus musculus, UniProt P34914); settings: read-out: msEH IC50, average of three replicates
T1 sequence (P34914 1-554): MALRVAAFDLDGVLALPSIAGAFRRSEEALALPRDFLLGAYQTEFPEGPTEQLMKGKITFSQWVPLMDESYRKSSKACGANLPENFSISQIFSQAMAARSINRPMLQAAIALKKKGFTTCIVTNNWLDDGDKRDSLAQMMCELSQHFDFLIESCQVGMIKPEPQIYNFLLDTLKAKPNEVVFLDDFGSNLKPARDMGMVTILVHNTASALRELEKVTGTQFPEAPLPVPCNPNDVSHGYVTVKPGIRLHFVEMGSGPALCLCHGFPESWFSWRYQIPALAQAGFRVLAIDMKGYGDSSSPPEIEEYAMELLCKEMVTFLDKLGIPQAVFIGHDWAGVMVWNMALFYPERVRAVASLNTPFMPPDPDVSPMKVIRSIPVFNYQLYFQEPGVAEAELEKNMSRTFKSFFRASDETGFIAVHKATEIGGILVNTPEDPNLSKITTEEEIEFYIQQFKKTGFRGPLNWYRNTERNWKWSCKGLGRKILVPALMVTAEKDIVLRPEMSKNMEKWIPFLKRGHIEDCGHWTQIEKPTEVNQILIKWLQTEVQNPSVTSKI
Procedure: (§1) Human and mouse soluble epoxide hydrolase inhibition assay. The inhibitory activity of
(§2) the target compounds toward human and mouse sEH was determined by a fluorescence-based
(§3) assay, using purified recombinant human or mouse sEH proteins and CMNPC as a fluorescent
(§4) substrate.6 The enzymes were incubated at 30 °C with the inhibitors ([I]final = 0.4-100,000
(§5) nM) for 5 min in 100 mM sodium phosphate buffer (200 µL, pH 7.4) containing 0.1 mg mL‒1
(§6) of BSA and 1% of DMSO. The substrate (CMNPC) was then added ([S]final = 5 µM). Activity
(§7) was assessed by measuring the appearance of the fluorescent 6-methoxynaphthaldehyde
(§8) (Molecular Devices). Results were obtained by regression analysis from a linear region of the
(§9) curve and are given as IC50 values, i.e., the concentration of the compound that reduces the
(§10) sEH activity by 50%. All measurements were performed in triplicate and the mean is

recombinant human sEH = molecular target: T2, recombinant human sEH (Homo sapiens, UniProt P34913); assay: Human soluble epoxide hydrolase inhibition, fluorescence-based assay (CMNPC substrate); format: biochemical; settings: for IC50: recombinant human sEH, average of three replicates, read-out: hsEH IC50; for higher hsEH potency relative to TPPU: ratio of IC50s vs TPPU
T2 sequence (P34913 1-555): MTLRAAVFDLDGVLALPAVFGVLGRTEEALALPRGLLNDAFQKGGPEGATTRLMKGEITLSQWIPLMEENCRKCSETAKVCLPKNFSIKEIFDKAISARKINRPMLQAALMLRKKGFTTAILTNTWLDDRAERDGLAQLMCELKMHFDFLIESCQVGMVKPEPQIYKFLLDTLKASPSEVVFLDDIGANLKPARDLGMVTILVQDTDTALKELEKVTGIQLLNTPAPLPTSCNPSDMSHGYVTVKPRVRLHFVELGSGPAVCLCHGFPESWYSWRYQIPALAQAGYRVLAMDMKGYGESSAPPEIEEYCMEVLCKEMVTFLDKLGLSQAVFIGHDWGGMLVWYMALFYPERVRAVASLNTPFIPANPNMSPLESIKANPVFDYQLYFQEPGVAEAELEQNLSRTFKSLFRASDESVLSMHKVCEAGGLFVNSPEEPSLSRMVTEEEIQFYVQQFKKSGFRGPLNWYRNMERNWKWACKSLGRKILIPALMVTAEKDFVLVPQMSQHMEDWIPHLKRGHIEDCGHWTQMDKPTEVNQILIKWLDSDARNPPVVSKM
Procedure: as §1, §2, §3, §4, §5, §6, §7, §8, §9, §10

recombinant mouse AChE = molecular target: T3, recombinant mouse AChE (Mus musculus, UniProt P21836); assay: Mouse acetylcholinesterase inhibition, Ellman's method; format: biochemical; settings: recombinant mouse AChE; mean ± SEM; read-out: mAChE IC50
T3 construct: purchased Bio-Techne, Milan, Italy
T3 sequence (P21836 32-614): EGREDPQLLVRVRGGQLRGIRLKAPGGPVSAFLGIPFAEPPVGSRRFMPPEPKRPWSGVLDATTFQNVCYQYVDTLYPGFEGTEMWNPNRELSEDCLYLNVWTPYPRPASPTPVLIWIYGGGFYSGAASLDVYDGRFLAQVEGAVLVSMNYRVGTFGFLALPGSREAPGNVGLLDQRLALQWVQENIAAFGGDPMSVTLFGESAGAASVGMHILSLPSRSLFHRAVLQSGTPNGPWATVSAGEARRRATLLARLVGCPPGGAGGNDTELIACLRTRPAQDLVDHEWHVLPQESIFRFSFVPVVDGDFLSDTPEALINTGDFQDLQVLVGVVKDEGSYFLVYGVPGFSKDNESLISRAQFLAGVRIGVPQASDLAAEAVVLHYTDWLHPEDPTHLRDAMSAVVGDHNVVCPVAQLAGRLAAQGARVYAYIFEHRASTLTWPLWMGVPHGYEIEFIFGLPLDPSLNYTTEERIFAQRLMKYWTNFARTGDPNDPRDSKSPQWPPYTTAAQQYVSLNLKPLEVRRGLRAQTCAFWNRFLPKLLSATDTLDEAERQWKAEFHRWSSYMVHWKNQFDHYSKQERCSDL
Procedure: (§11) Human and mouse acetylcholinesterase and human butyrylcholinesterase inhibition
(§12) assay. The inhibitory activity of the target compounds toward recombinant human AChE
(§13) (Sigma-Aldrich, Milan, Italy), recombinant mouse AChE (Bio-Techne, Milan, Italy) and
(§14) human serum BChE (Sigma-Aldrich, Milan, Italy) was assessed by Ellman’s method,8 using
(§15) Stock solutions of the AChEs were prepared by
(§16) dissolving enzyme lyophilized powder (hAChE) or diluting the enzyme commercial solution
(§17) (mAChE) in 0.1 M potassium phosphate (pH 8.0) containing 0.1% Triton X-100, whereas the
(§18) stock solution of hBChE was prepared in 0.1% aq. gelatin and the stock solutions of the
(§19) compounds to be tested were made in MeOH (2-4 mM). The assay solution consisted of 0.02
(§20) unit mL‒1 of the enzyme, 340 M 5,5’-dithiobis(2-nitrobenzoic acid), and 550 M of the
(§21) substrate acetylthiocholine iodide (for AChE assay) or butyrylthiocholine iodide (for BChE
(§22) assay) in 0.1 M potassium phosphate (pH 8.0). Blank solutions containing all components
(§23) except the enzymes were prepared to account for the non-enzymatic hydrolysis of the
(§24) Prior the addition of the substrate, the assay solutions were incubated at 37 °C for 20 min.
(§25) After the addition of the substrate, cuvettes were rapidly transferred into a Jasco V-530
(§26) double beam spectrophotometer equipped with thermostated cuvette holders (37 °C), in order
(§27) for 240 s. For each tested compound, five increasing concentrations were assayed in order to
(§28) achieve inhibition percentages of 20‒80%. Each concentration was assayed in triplicate. IC50
(§29) values were calculated from the inhibition plot (% inhibition vs log[inhibitor]) and are
(§30) expressed as mean ± SEM. Each IC50 value is the average of at least two experiments, each

[2] = Microsomal stability, human liver microsomes; format: in vitro ADME; settings: human, liver microsomes (pooled), pH 7.4; for remaining at 1 h: after 1 h of incubation at 37 °C, read-out: % remaining compound, human microsomes
Procedure: (§31) Microsomal stability screen. The microsomal stability of the target compounds was
(§32) determined at the Innopharma Drug Screening and Pharmacogenomics Platform (Santiago de
(§33) Compostela, Spain). The human, rat and mice pooled microsomes, with a protein content of 20 mg mL‒1, were purchased from Tebu-Xenotech. The compounds were incubated in a 96-well microplate at 37 °C with the microsomes in 50 mM phosphate buffer (pH = 7.4) containing as cofactors 30 mM MgCl2, 10 mM NADP, 100 mM glucose-6-phosphate and 40
(§34) Samples (75 µL) were taken from each well at 0, 10, 20, 40 and 60 min and transferred to a microplate. 4 °C Acetonitrile (75 µL) and internal standard (rolipram) were then added for inactivating the microsomes, and water with 0.5% formic acid (30 µL) was subsequently added for improving the chromatographic conditions, keeping the mixtures at 4 °C. The plate was centrifuged at 46,000 g for 30 min at 15 °C and supernatants were taken and analyzed in a UPLC-MS/MS system (UPLC QSM Waters Acquity) using reverse phase Acquity UPLC® HSST3 1.7 μm (2.1 mm × 50 mm, Waters) as the stationary phase, 0.1% formic acid in water (A) / 0.1% formic acid in acetonitrile (B) as the mobile phase, a flow of 0.8 mL min‒1, and the
(§35) The metabolic stability of the compounds was calculated from the logarithm of the remaining compound at each of the time points studied.

recombinant human AChE = molecular target: T4, recombinant human AChE (Homo sapiens, UniProt P22303); format: biochemical; settings: for IC50: recombinant human AChE, mean ± SEM, read-out: hAChE IC50
T4 construct: purchased Sigma-Aldrich, Milan, Italy
T4 sequence (P22303 32-614): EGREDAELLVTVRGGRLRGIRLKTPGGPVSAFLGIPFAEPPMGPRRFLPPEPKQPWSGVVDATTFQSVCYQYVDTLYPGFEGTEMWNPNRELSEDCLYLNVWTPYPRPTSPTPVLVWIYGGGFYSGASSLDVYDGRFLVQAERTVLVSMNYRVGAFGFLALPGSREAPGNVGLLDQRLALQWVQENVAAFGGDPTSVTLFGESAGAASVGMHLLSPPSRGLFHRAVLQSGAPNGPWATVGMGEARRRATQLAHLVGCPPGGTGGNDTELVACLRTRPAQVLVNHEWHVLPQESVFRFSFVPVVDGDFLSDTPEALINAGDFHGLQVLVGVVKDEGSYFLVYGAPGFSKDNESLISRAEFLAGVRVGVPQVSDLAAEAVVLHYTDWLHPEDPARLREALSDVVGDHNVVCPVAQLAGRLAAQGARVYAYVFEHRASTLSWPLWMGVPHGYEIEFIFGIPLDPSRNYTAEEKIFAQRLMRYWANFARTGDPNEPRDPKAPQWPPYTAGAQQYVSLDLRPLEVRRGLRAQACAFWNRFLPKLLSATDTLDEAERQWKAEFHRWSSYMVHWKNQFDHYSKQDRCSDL
Procedure: as §11, §12, §13, §14, §15, §16, §17, §18, §19, §20, §21, §22, §23, §24, §25, §26, §27, §28, §29, §30

[3] = Microsomal stability, mouse liver microsomes; format: in vitro ADME; settings: mouse, liver microsomes (pooled), pH 7.4; for microsomal CLint at 1 h, 0.05 µM / half-life at 1 h, 0.05 µM: 37 °C; for half-life at 1 h, 0.05 µM: read-out: t1/2, mouse microsomes; for remaining at 1 h, 0.05 µM: after 1 h of incubation at 37 °C, read-out: % remaining compound, mouse microsomes
Procedure: as §31, §32, §33, §34, §35

[4] = Kinetic aqueous solubility screen (light scattering); settings: 1% DMSO / 99% PBS
Procedure: Aqueous solubility screen. The kinetic aqueous solubility of the target compounds was
as §32
Compostela, Spain). Ten mM stock solutions of the tested compounds were serially diluted,
NEPHELOstar Plus reader (BMG LABTECH). The results were adjusted to a segmented
linear regression to obtain the maximum concentration in which the compounds were soluble.

human serum BChE = molecular target: T5, human serum BChE (Homo sapiens, UniProt P06276); format: biochemical; settings: read-out: hBChE IC50
T5 construct: human serum BChE (Sigma-Aldrich, Milan, Italy) was assessed by Ellman’s method; purchased Sigma-Aldrich, Milan, Italy; host or cells: human serum
T5 sequence (P06276 29-602): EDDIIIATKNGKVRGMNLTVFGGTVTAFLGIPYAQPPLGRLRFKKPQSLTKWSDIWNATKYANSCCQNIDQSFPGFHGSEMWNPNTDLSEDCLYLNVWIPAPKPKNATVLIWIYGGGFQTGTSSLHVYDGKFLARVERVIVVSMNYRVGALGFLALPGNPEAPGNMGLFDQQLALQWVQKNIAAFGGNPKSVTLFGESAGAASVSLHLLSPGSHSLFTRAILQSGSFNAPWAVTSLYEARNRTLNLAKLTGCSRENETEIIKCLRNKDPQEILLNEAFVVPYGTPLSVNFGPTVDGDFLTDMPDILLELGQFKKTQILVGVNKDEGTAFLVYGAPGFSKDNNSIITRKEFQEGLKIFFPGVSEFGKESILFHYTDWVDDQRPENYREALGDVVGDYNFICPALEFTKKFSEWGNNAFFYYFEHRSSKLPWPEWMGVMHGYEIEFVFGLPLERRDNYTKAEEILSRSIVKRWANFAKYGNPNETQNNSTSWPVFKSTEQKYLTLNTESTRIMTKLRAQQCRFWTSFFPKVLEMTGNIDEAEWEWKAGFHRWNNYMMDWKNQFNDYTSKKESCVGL
Procedure: as §11, §12, §13, §14, §15, §16, §17, §18, §19, §20, §21, §22, §23, §24, §25, §26, §27, §28, §29, §30

[5] = Microsomal stability, rat liver microsomes; format: in vitro ADME; settings: rat, liver microsomes (pooled), pH 7.4; for remaining at 1 h, 0.05 µM: after 1 h of incubation at 37 °C, read-out: % remaining compound, rat microsomes
Procedure: as §31, §32, §33, §34, §35

SH-SY5Y cells = assay: Cytotoxicity in SH-SY5Y cells, propidium iodide stain; format: cell-based, human; settings: for toxicity to SH-SY5Y cells LD50: propidium iodide staining after 24 h of incubation, mean ± SD; for LD50 (SH-SY5Y): supplementary CSV
Procedure: Cytotoxicity in SH-SY5Y cells. The cytotoxicity of the target compounds was evaluated in
Minimum Essential Medium / Ham’s-F12 (1:1, v/v) medium (Biowest), supplemented with
non-essential amino acids, 10% fetal bovine serum, 1 mM glutamine and 50 µg mL‒1
gentamycin (all reagents from Gibco, Thermo Fisher Scientific). For the experiments, cells
were seeded at 3 × 10^5 cells mL‒1 (100 µL per well) in 96-well plates (Nunc). After 24 h, the
test compounds were added concentrated from stock solutions in DMSO and culture medium
to triplicate wells to obtain the final different concentrations up to 100 µM in 0.1% DMSO.
Compounds were incubated for further 24 h. At termination, cytotoxicity was analyzed by the
propidium iodide (PI) fluorescence stain assay. All compounds were tested in three
independent experiments using different cell passages. The PI assay measures cell death. PI
enters into the cells with damaged membranes and greatly increases the fluorescence upon
binding to DNA. PI reagent (Molecular Probes) at the final concentration of 7.5 µg mL‒1 was
added to the cells and incubated for 1 h. The resulting fluorescence was measured by a Flx-
death induced by the compounds was calculated from to the fluorescence of treated cells (Ft)
relative to that of control cells (Fmin) and cells incubated with Triton X100 (Fmax) as the 0%
and 100% cell death, respectively [% = ((Ft-Fmin)/(Fmax-Fmin)) × 100]. All compounds
were tested in three independent experiments using different cell passages. LC50 values were
calculated for each experiment and the results are expressed as mean ± SD.

[6] = molecular target: PAS of Electrophorus electricus AChE (EeAChE) (Electrophorus electricus, UniProt O42275); settings: read-out: KD of propidium for PAS; value assumed for the calculation; ref 11 (Supporting Information); cited from earlier work
PAS of Electrophorus electricus AChE (EeAChE), sequence (O42275 24-633): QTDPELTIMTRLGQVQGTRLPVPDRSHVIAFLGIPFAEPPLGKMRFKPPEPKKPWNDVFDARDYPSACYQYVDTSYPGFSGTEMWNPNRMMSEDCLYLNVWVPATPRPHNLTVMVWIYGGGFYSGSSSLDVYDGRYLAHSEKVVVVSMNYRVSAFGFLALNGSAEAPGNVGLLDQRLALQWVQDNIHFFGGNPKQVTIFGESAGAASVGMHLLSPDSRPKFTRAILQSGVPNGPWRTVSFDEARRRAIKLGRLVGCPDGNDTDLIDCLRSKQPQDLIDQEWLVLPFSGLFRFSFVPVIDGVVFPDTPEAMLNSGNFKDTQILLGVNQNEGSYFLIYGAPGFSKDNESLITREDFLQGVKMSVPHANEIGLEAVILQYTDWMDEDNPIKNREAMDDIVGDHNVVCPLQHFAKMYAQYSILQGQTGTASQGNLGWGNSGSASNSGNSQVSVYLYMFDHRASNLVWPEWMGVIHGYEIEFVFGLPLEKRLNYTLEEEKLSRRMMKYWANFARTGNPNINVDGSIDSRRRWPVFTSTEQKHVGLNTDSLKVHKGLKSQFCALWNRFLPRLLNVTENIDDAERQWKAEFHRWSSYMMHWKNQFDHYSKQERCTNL

[7] = 37 °C, read-out: t1/2, human microsomes
[8] = human serum BChE, mean ± SEM, n.a. = not active, % inhibition <10% at 100 μM
[9] = 37 °C, read-out: t1/2, rat microsomes

Compound	Papp [1]	IC50 (recombinant mouse sEH)	IC50 (recombinant human sEH)	IC50 (recombinant mouse AChE)	microsomal CLint at 1 h ([2]; 37 °C)	remaining at 1 h [2]	BBB permeation class [1]	IC50 (recombinant human AChE)	microsomal CLint at 1 h, 0.05 µM [3]	half-life at 1 h, 0.05 µM [3]	remaining at 1 h, 0.05 µM [3]	solubility at 2 h [4]	IC50 (human serum BChE; [8])	microsomal CLint at 1 h, 0.05 µM ([5]; 37 °C)	remaining at 1 h, 0.05 µM [5]	toxicity to SH-SY5Y cells LD50 (SH-SY5Y cells)	LD50 (SH-SY5Y) (SH-SY5Y cells)	further results
CN1C(C(=O)Nc2ccccn2)=C(O)c2ccccc2S1(=O)=O [Piroxicam, reference compound]	2.3 ± 0.1 ×10⁻⁶ cm/s	–	–	–	–	–	–	–	–	–	–	–	–	–	–	–	–	–
Nc1c2c(nc3cc(Cl)ccc13)CCCC2 [compound 2, 6-chlorotacrine, reference compound]	–	> 50000 nM	49100 nM	19.8 ± 0.7 nM	–	–	–	–	–	–	–	–	–	–	–	–	–	–
O=C(Nc1ccc(OC(F)(F)F)cc1)NC1CCN(C(=O)CCCNc2c3c(nc4cc(Cl)ccc24)CCCC3)CC1 [12b, 1-{1-{4-[(6-Chloro-1,2,3,4-tetrahydroacridin-9-yl)amino]butanoyl}piperidin-4-yl}-3-[4-(trifluoromethoxy)phenyl]urea]	9.1 ± 0.1 ×10⁻⁶ cm/s	15 nM	1 nM	4.01 ± 0.24 nM	19 µL/min/mg	34%	CNS+ (High permeation, CNS+: Pe > 5.2)	2.71 ± 0.06 nM	78 µL/min/mg	9 min	1%	13.7 µM (≈ 8.28 µg/mL)	416 ± 35 nM	69 µL/min/mg	2%	>100 µM	> 100 ?M	half-life at 1 h [2, 7]: 36 min; hAChE potency relative to 6-chlorotacrine (recombinant human AChE): 5 fold; half-life at 1 h, 0.05 µM [5, 9]: 10 min
CC1=C[C@H]2Cc3nc4cc(Cl)ccc4c(NCCCCC(=O)N4CCC(NC(=O)Nc5ccc(OC(F)(F)F)cc5)CC4)c3[C@@H](C1)C2 [(+)-15, (+)-(7R,11R)-1-{1-{5-[(3-Chloro-6,7,10,11-tetrahydro-9-methyl-7,11-methanocycloocta[b]quinolin-12-yl)amino]pentanoyl}piperidin-4-yl}-3-[4-(trifluoromethoxy)phenyl]urea]	–	14.5 nM	3.1 nM	102 ± 18 nM	–	–	–	1660 ± 450 nM	–	–	–	–	179 ± 26 nM	–	–	–	–	–
O=C(Nc1ccc(OC(F)(F)F)cc1)NC1CCN(C(=O)CCNc2c3c(nc4cc(Cl)ccc24)CCCC3)CC1 [12a, 1-{1-{3-[(6-Chloro-1,2,3,4-tetrahydroacridin-9-yl)amino]propanoyl}piperidin-4-yl}-3-[4-(trifluoromethoxy)phenyl]urea]	9.2 ± 0.2 ×10⁻⁶ cm/s	12.1 nM	0.4 nM	35.4 ± 2 nM	57 µL/min/mg	4%	CNS+ (High permeation, CNS+: Pe > 5.2)	14.5 ± 0.3 nM	109 µL/min/mg	6 min	1%	42.6 µM (≈ 25.1 µg/mL)	947 ± 6 nM	56 µL/min/mg	4%	92.8 ± 52.3 µM	92.8 ± 52.3 ?M	half-life [2, 7]: 12 min; higher hsEH potency relative to TPPU (recombinant human sEH): 9 fold; half-life at 0.05 µM [5, 9]: 12 min
CC1=C[C@@H]2Cc3nc4cc(Cl)ccc4c(N)c3[C@H](C1)C2 [(−)-3, (−)-huprine Y, reference compound]	–	> 50000 nM	41000 nM	0.62 ± 0.03 nM	–	–	–	–	–	–	–	–	–	–	–	–	–	IC50 (human serum BChE): 222 ± 17 nM
CC[N+](C)(CC)CCC[n+]1c(-c2ccccc2)c2cc(N)ccc2c2ccc(N)cc21 [propidium, propidium iodide]	–	–	–	–	–	–	–	–	–	–	–	–	–	–	–	–	–	Kd [6]: 700 nM
CC1=C[C@@H]2Cc3nc4cc(Cl)ccc4c(NCCCCC(=O)N4CCC(NC(=O)Nc5ccc(OC(F)(F)F)cc5)CC4)c3[C@H](C1)C2 [(−)-15, (−)-(7S,11S)-1-{1-{5-[(3-Chloro-6,7,10,11-tetrahydro-9-methyl-7,11-methanocycloocta[b]quinolin-12-yl)amino]pentanoyl}piperidin-4-yl}-3-[4-(trifluoromethoxy)phenyl]urea]	9.9 ± 0.3 ×10⁻⁶ cm/s	34.3 nM	0.4 nM	2.61 ± 0.16 nM	144 µL/min/mg	1%	CNS+ (High permeation, CNS+: Pe > 5.2)	1.94 ± 0.67 nM	172 µL/min/mg	4 min	0.4%	5.6 µM (≈ 3.75 µg/mL)	615 ± 34 nM	54 µL/min/mg	4%	>100 µM	> 100 ?M	half-life at 1 h [2, 7]: 5 min; hAChE potency relative to its enantiomer (recombinant human AChE; enantioselectivity): 850 fold; hsEH potency relative to its enantiomer (recombinant human sEH; enantioselectivity): 8 fold; higher hsEH potency relative to TPPU (recombinant human sEH): 9 fold; half-life at 1 h, 0.05 µM [5, 9]: 13 min
CC1=C[C@H]2Cc3nc4cc(Cl)ccc4c(N)c3[C@@H](C1)C2 [(+)-3, (+)-huprine Y, reference compound]	–	> 50000 nM	> 50000 nM	474 ± 22 nM	–	–	–	–	–	–	–	–	–	–	–	–	–	IC50 (human serum BChE): 170 ± 17 nM
